Experimental data from PubChem BioAssay (NCI).
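Test compounds were applied to cells in 96-well plates for 48 hours at 5 doses. GI50 = concentration required for 50% inhibition of growth. TGI: concentration producing complete growth inhibition.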

Columns and labels:
Experiment in all cases: NCI anticancer screen, dose series, 48 h
[1] = tested on: ACHN renal
[2] = tested on: CCRF-CEM leukemia
[3] = tested on: EKVX NSCLC
[4] = tested on: HCC-2998 colon
[5] = tested on: HCT-116 colon
[6] = tested on: HCT-15 colon
[7] = tested on: HS 578T breast
[8] = tested on: IGROV1 ovarian
[9] = tested on: KM12 colon
[10] = tested on: LOX IMVI melanoma
[11] = tested on: M14 melanoma
[12] = tested on: MALME-3M melanoma
[13] = tested on: MCF7 breast
[14] = tested on: MDA-MB-231 breast
[15] = tested on: MDA-MB-435
[16] = tested on: NCI-H23 lung
[17] = tested on: OVCAR-5 ovarian
[18] = tested on: SF-295 CNS
[19] = tested on: SF-539 CNS
[20] = tested on: SK-MEL-28 melanoma
[21] = tested on: SK-MEL-5 melanoma
[22] = tested on: SN12C renal
[23] = tested on: SNB-19 CNS
[24] = tested on: UACC-62 melanoma
[25] = tested on: UO-31 renal
[26] = tested on: 786-0 renal
[27] = tested on: A498 renal
[28] = tested on: A549 NSCLC
[29] = tested on: BT-549 breast
[30] = tested on: CAKI-1 renal
[31] = tested on: COLO 205 colon
[32] = tested on: DU-145 prostate
[33] = tested on: HL-60(TB) leukemia
[34] = tested on: HOP-62 NSCLC
[35] = tested on: HOP-92 NSCLC
[36] = tested on: HT29 colon
[37] = tested on: K-562 leukemia
[38] = tested on: MOLT-4 leukemia
[39] = tested on: NCI-H226 lung
[40] = tested on: NCI-H460 lung
[41] = tested on: NCI-H522 lung
[42] = tested on: NCI/ADR-RES ovarian
[43] = tested on: OVCAR-4 ovarian
[44] = tested on: OVCAR-8 ovarian
[45] = tested on: PC-3 prostate
[46] = tested on: RPMI-8226 leukemia
[47] = tested on: RXF 393 renal
[48] = tested on: SF-268 CNS
[49] = tested on: SK-MEL-2 melanoma
[50] = tested on: SK-OV-3 ovarian
[51] = tested on: SNB-75 CNS
[52] = tested on: SR leukemia
[53] = tested on: SW-620 colon
[54] = tested on: T-47D breast
[55] = tested on: TK-10 renal
[56] = tested on: U251 CNS
[57] = tested on: UACC-257 melanoma

For `CCOC(=O)c1c(NC(=O)c2cccc(C(F)(F)F)c2)sc2c(CN3CCN(C)CC3)c(O)ccc12`, the GI50 [1] was 1.82 µM, the TGI [1] was 3.31 µM and the GI50 [2] was 1.51 µM. For the same compound, the TGI [2] was 4.22 µM, the GI50 [3] was 1.69 µM and the TGI [3] was 3.31 µM. For the same compound, the GI50 [4] was 1.65 µM, the TGI [4] was 3.37 µM and the GI50 [5] was 1 µM. For the same compound, the TGI [5] was 2.43 µM, the GI50 [6] was 1.61 µM and the TGI [6] was 3.13 µM. It also gave a GI50 [7] of 1.89 µM, a TGI [7] of 4.51 µM and a GI50 [8] of 1.7 µM. It also gave a TGI [8] of 3.27 µM, a GI50 [9] of 1.86 µM and a TGI [9] of 3.4 µM. For the same compound, the GI50 [10] was 1.76 µM, the TGI [10] was 3.31 µM and the GI50 [11] was 1.88 µM. The TGI [11] was 3.53 µM, the GI50 [12] was 1.65 µM and the TGI [12] was 3.15 µM. The GI50 [13] was 1.51 µM, the TGI [13] was 3.03 µM and the GI50 [14] was 1.65 µM. It also gave a TGI [14] of 3.11 µM, a GI50 [15] of 1.69 µM and a TGI [15] of 3.1 µM. For the same compound, the GI50 [16] was 1.76 µM, the TGI [16] was 3.28 µM and the GI50 [17] was 1.5 µM. It also gave a TGI [17] of 2.85 µM, a GI50 [18] of 1.7 µM and a TGI [18] of 3.25 µM. The GI50 [19] was 1.62 µM, the TGI [19] was 3.06 µM and the GI50 [20] was 1.72 µM. For the same compound, the TGI [20] was 3.15 µM, the GI50 [21] was 1.79 µM and the TGI [21] was 3.4 µM. For the same compound, the GI50 [22] was 1.67 µM, the TGI [22] was 3.16 µM and the GI50 [23] was 1.72 µM. It also gave a TGI [23] of 3.31 µM, a GI50 [24] of 1.76 µM and a TGI [24] of 3.27 µM. For the same compound, the GI50 [25] was 1.52 µM and the TGI [25] was 3 µM.
Work on `N#Cc1c(NC(=O)c2cccc(C(F)(F)F)c2F)sc2c1CCC(=O)C2` yielded a GI50 [26] of 0.444 µM, a TGI [26] greater than 47.5 µM and a GI50 [27] of 2.19 µM. For the same compound, the TGI [27] was 5.93 µM, the GI50 [28] was 1.88 µM and the TGI [28] was greater than 100 µM. The GI50 [1] was 0.296 µM, the TGI [1] was 1.01 µM and the GI50 [29] was 0.308 µM. It also gave a TGI [29] of 1.43 µM, a GI50 [30] of 0.221 µM and a TGI [30] of 0.866 µM. For the same compound, the GI50 [2] was 0.19 µM, the TGI [2] was greater than 100 µM and the GI50 [31] was 0.21 µM. For the same compound, the TGI [31] was 0.437 µM, the GI50 [32] was 1.27 µM and the TGI [32] was greater than 100 µM. The GI50 [3] was 0.563 µM, the TGI [3] was 4.4 µM and the GI50 [4] was 0.588 µM. The TGI [4] was 2.09 µM, the GI50 [5] was 0.124 µM and the TGI [5] was 1.26 µM. It also gave a GI50 [6] of 0.246 µM, a TGI [6] of 1.14 µM and a GI50 [33] of 0.235 µM. The TGI [33] was 10.9 µM, the GI50 [34] was 0.782 µM and the GI50 [35] was 0.243 µM. The TGI [35] was 0.679 µM, the GI50 [7] was 0.357 µM and the TGI [7] was 2.32 µM. The GI50 [36] was 0.226 µM, the TGI [36] was 1.31 µM and the GI50 [8] was 0.49 µM. For the same compound, the TGI [8] was 2.2 µM, the GI50 [37] was 0.112 µM and the TGI [37] was greater than 100 µM. The GI50 [9] was 0.464 µM, the TGI [9] was 1.98 µM and the GI50 [10] was 0.311 µM. For the same compound, the TGI [10] was 1.18 µM, the GI50 [11] was 0.378 µM and the TGI [11] was 2.1 µM. For the same compound, the GI50 [12] was 0.266 µM, the TGI [12] was 0.694 µM and the GI50 [13] was 0.276 µM. The TGI [13] was greater than 23 µM, the GI50 [14] was 0.356 µM and the TGI [14] was 1.35 µM. It also gave a GI50 [15] of 0.336 µM, a TGI [15] of 1.4 µM and a GI50 [38] of 0.308 µM. For the same compound, the TGI [38] was greater than 37.7 µM, the GI50 [39] was 0.487 µM and the TGI [39] was 2.57 µM. The GI50 [16] was 0.337 µM, the TGI [16] was 2.07 µM and the GI50 [40] was 0.549 µM. For the same compound, the TGI [40] was greater than 38.9 µM, the GI50 [41] was 0.194 µM and the TGI [41] was 0.719 µM. For the same compound, the GI50 [42] was 0.345 µM, the TGI [42] was 1.82 µM and the GI50 [43] was 0.393 µM. The TGI [43] was 1.73 µM, the GI50 [17] was 0.392 µM and the TGI [17] was 1.78 µM. The GI50 [44] was 0.356 µM, the TGI [44] was greater than 100 µM and the GI50 [45] was 0.114 µM. It also gave a TGI [45] of 1.48 µM, a GI50 [46] of 0.0664 µM and a GI50 [47] of 0.221 µM. It also gave a TGI [47] of 0.714 µM, a GI50 [48] of 0.408 µM and a TGI [48] greater than 100 µM. For the same compound, the GI50 [18] was 0.515 µM, the TGI [18] was 2.42 µM and the GI50 [19] was 0.244 µM. The TGI [19] was 0.8 µM, the GI50 [49] was 2.15 µM and the TGI [49] was 5.33 µM. For the same compound, the GI50 [20] was 0.475 µM, the TGI [20] was 1.79 µM and the GI50 [21] was 0.372 µM. It also gave a TGI [21] of 1.32 µM, a GI50 [50] of 1.96 µM and a TGI [50] of 6.37 µM. The GI50 [22] was 0.326 µM, the TGI [22] was 2.22 µM and the GI50 [23] was 0.41 µM. For the same compound, the TGI [23] was 15.6 µM, the GI50 [51] was 0.459 µM and the TGI [51] was 3.55 µM. The GI50 [52] was 0.0761 µM, the TGI [52] was greater than 100 µM and the GI50 [53] was 0.225 µM. For the same compound, the TGI [53] was 1.46 µM, the GI50 [54] was 0.151 µM and the TGI [54] was 1.65 µM. The GI50 [55] was 0.33 µM, the GI50 [56] was 0.356 µM and the TGI [56] was 2.24 µM. For the same compound, the GI50 [57] was 0.624 µM, the TGI [57] was 3.18 µM and the GI50 [24] was 0.317 µM. For the same compound, the TGI [24] was 1.33 µM, the GI50 [25] was 0.22 µM and the TGI [25] was 0.73 µM.
